Results: the NIST ThermoML archive (doi:10.1016/j.jct.2014.07.001)
± gives the expanded uncertainty stated by the source.

Settings: Drop volume

Structure (SMILES) | surface tension liquid-gas (293.15 K) | surface tension liquid-gas (303.15 K) | surface tension liquid-gas (313.15 K) | surface tension liquid-gas (323.15 K)
CCCC[n+]1cccc(C)c1.F[B-](F)(F)F [1-butyl-3-methylpyridinium tetrafluoroborate] | 45.21 ± 0.54 mN/m | 44.48 ± 0.53 mN/m | 43.8 ± 0.52 mN/m | 43.24 ± 0.52 mN/m
CCCC[n+]1ccc(C)cc1.F[B-](F)(F)F [1-butyl-4-methylpyridinium tetrafluoroborate] | 45.82 ± 0.54 mN/m | 45.09 ± 0.54 mN/m | 44.41 ± 0.53 mN/m | 43.71 ± 0.52 mN/m
CCCC[n+]1ccccc1.F[B-](F)(F)F [1-butylpyridinium tetrafluoroborate] | 46.9 ± 0.56 mN/m | 46.3 ± 0.55 mN/m | 45.69 ± 0.54 mN/m | 45.11 ± 0.54 mN/m
CCC[n+]1ccccc1.F[B-](F)(F)F [1-propylpyridinium tetrafluoroborate] | 51.29 ± 0.61 mN/m | 50.51 ± 0.6 mN/m | 49.79 ± 0.59 mN/m | 49.03 ± 0.58 mN/m
CCO [ethanol] | 22.28 ± 0.26 mN/m | 21.49 ± 0.25 mN/m | 20.66 ± 0.24 mN/m | 19.84 ± 0.23 mN/m
CO [methanol] | 22.6 ± 0.26 mN/m | 21.81 ± 0.25 mN/m | 20.93 ± 0.24 mN/m | 20.05 ± 0.23 mN/m
